Source: PubChem BioAssay (NCI)
Where “and” joins values, the source holds several entries; their conditions need not be identical. Identical values can stand only once.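 Assay format: 96-well plates, 48-hour exposure. Here, GI50 denotes the concentration required for 50% inhibition of growth. At the TGI there is no net growth.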

Experiments:
Experiment in all cases: NCI anticancer screen, dose series, 48 h
[1] = tested on: RXF 393 renal
[2] = tested on: HCC-2998 colon
[3] = tested on: UACC-257 melanoma
[4] = tested on: SK-MEL-5 melanoma
[5] = tested on: SN12C renal
[6] = tested on: SK-MEL-28 melanoma
[7] = tested on: UO-31 renal
[8] = tested on: LOX IMVI melanoma
[9] = tested on: NCI-H460 lung
[10] = tested on: A498 renal

O=C(O)CSc1n[nH]c(/C=C/c2ccccc2)n1 was tested, and the TGI [1] was greater than 100 µM, the TGI [2] was greater than 100 µM and the TGI [3] was greater than 100 µM. It also gave a TGI [4] greater than 100 µM, a TGI [5] greater than 100 µM and a TGI [6] greater than 100 µM. For the same compound, the TGI [7] was greater than 100 µM, the TGI [8] was greater than 100 µM and the TGI [9] was greater than 100 µM. For the same compound, the TGI [10] was greater than 100 µM.
COc1ccc2c(c1)O/C(=C\c1cccc(OCC(=O)Nc3nc4ccccc4s3)c1)C2=O gave a GI50 [1] of 1.96 µM, a TGI [1] of 3.99 µM and a GI50 [2] greater than 100 µM. For the same compound, the TGI [2] was greater than 100 µM, the GI50 [3] was greater than 100 µM and the TGI [3] was greater than 100 µM. It also gave a GI50 [4] greater than 51.5 µM, a TGI [4] greater than 100 µM and a GI50 [5] of 2.82 µM. It also gave a TGI [5] greater than 100 µM, a GI50 [6] greater than 72 µM and a TGI [6] greater than 100 µM. The GI50 [7] was 1.53 µM, the TGI [7] was 3 µM and the GI50 [8] was 0.328 µM. For the same compound, the TGI [8] was 1.05 µM, the GI50 [9] was greater than 64.4 µM and the TGI [9] was greater than 100 µM. For the same compound, the GI50 [10] was 10.1 µM and the TGI [10] was greater than 93.3 µM.
With COC(=O)N1[C@H]2Cc3c(OC)c(C)c(OC)c(OC)c3[C@@H]1/C(=C\c1cc(OC)c(OC)c(C)c1OC)N(Cc1ccccc1)C2=O the TGI [1] was greater than 100 µM, the TGI [2] was greater than 100 µM and the TGI [3] was greater than 100 µM. For the same compound, the TGI [4] was 53.8 µM, the TGI [5] was greater than 100 µM and the TGI [6] was greater than 100 µM. For the same compound, the TGI [7] was greater than 100 µM, the TGI [8] was greater than 100 µM and the TGI [9] was greater than 100 µM. The TGI [10] was greater than 100 µM.
For COC(=O)c1cnc2nc(N3CCOCC3)[nH]n2c1=O, the TGI [1] was greater than 100 µM, the TGI [2] was greater than 100 µM and the TGI [3] was greater than 100 µM. The TGI [4] was greater than 100 µM, the TGI [5] was greater than 100 µM and the TGI [6] was greater than 100 µM. It also gave a TGI [7] greater than 100 µM, a TGI [8] greater than 100 µM and a TGI [9] greater than 100 µM. For the same compound, the TGI [10] was greater than 100 µM.
CC(NC(=O)c1ccccc1)C(=O)N(Cc1ccccc1)Cc1ccccc1 (configuration not stated) was tested, and the TGI [1] was 98.4 µM, the TGI [2] was greater than 100 µM and the TGI [3] was greater than 100 µM. It also gave a TGI [4] of 44.9 µM, a TGI [5] greater than 100 µM and a TGI [6] of 97.6 µM. It also gave a TGI [7] of 83.9 µM, a TGI [8] of 47.7 µM and a TGI [9] of 65.4 µM. It also gave a TGI [10] of 89.9 µM.
CO/N=C(\c1ccccc1)c1cnn(-c2ccccc2)c1N gave a GI50 [1] greater than 25 µM, a TGI [1] greater than 25 µM and a GI50 [2] greater than 25 µM. For the same compound, the TGI [2] was greater than 25 µM, the GI50 [3] was greater than 25 µM and the TGI [3] was greater than 25 µM. It also gave a GI50 [4] greater than 25 µM, a TGI [4] greater than 25 µM and a GI50 [5] greater than 25 µM. For the same compound, the TGI [5] was greater than 25 µM, the GI50 [6] was greater than 25 µM and the TGI [6] was greater than 25 µM. The GI50 [7] was greater than 25 µM, the TGI [7] was greater than 25 µM and the GI50 [8] was greater than 25 µM. The TGI [8] was greater than 25 µM, the GI50 [9] was greater than 25 µM and the TGI [9] was greater than 25 µM. For the same compound, the GI50 [10] was greater than 16.8 µM and the TGI [10] was greater than 25 µM.
With O=C(NO)c1ccc(C(=O)NO)cc1 the TGI [1] was greater than 100 µM, the TGI [2] was 45.5 µM and the TGI [3] was greater than 100 µM. The TGI [4] was greater than 100 µM, the TGI [5] was greater than 100 µM and the TGI [6] was greater than 100 µM. The TGI [7] was greater than 100 µM, the TGI [8] was greater than 100 µM and the TGI [9] was greater than 100 µM. It also gave a TGI [10] greater than 100 µM.
CN(C(=O)C1CCCCC1)c1ccccc1I(=O)=O gave a GI50 [1] of 68.5 µM, a TGI [1] greater than 100 µM and a GI50 [2] of 70.3 µM. It also gave a TGI [2] greater than 100 µM, a GI50 [3] of 63.6 µM and a TGI [3] greater than 100 µM. For the same compound, the GI50 [4] was 20.3 µM, the TGI [4] was 73.8 µM and the GI50 [5] was 79.4 µM. For the same compound, the TGI [5] was greater than 100 µM, the GI50 [6] was 22.8 µM and the TGI [6] was 56.9 µM. It also gave a GI50 [7] of 51 µM, a TGI [7] greater than 100 µM and a GI50 [8] of 40.2 µM. It also gave a TGI [8] greater than 100 µM, a GI50 [9] of 48 µM and a TGI [9] greater than 100 µM. It also gave a GI50 [10] of 52.1 µM and a TGI [10] greater than 100 µM.
O=C(c1ccccc1)c1ccc(-c2ccc(O)cc2)cc1 gave a GI50 [1] of 7.93 µM, a TGI [1] of 33.2 µM and a GI50 [2] of 15.2 µM. For the same compound, the TGI [2] was 43.9 µM, the GI50 [3] was 16 µM and the TGI [3] was 66.5 µM. For the same compound, the GI50 [4] was 1.05 µM, the TGI [4] was 11.8 µM and the GI50 [5] was 20.2 µM. For the same compound, the TGI [5] was greater than 100 µM, the GI50 [6] was 10.4 µM and the TGI [6] was greater than 61.7 µM. For the same compound, the GI50 [7] was 4.04 µM, the TGI [7] was 50.3 µM and the GI50 [8] was 11.1 µM. The TGI [8] was 28.8 µM, the GI50 [9] was 4.2 µM and the TGI [9] was 39.3 µM. It also gave a GI50 [10] of 13 µM and a TGI [10] greater than 58.9 µM.
Work on CN(C(=O)c1ccc(F)cc1C(F)(F)F)C1CCN(c2nnc(-c3ccnn3C)c3ccccc23)CC1 yielded a GI50 [1] of 17.4 µM, a TGI [1] greater than 84.3 µM and a GI50 [2] greater than 93.3 µM. It also gave a TGI [2] greater than 100 µM, a GI50 [3] of 23.2 µM and a TGI [3] greater than 100 µM. For the same compound, the GI50 [4] was 11.6 µM, the TGI [4] was 30 µM and the GI50 [5] was 51 µM. The TGI [5] was greater than 100 µM, the GI50 [6] was greater than 65.6 µM and the TGI [6] was greater than 100 µM. It also gave a GI50 [7] of 22 µM, a TGI [7] greater than 100 µM and a GI50 [8] of 61.5 µM. The TGI [8] was greater than 100 µM, the GI50 [9] was 53.9 µM and the TGI [9] was greater than 100 µM. It also gave a GI50 [10] of 54.8 µM and a TGI [10] greater than 100 µM.
Work on COc1ccc(CNc2cc(OC)cc(OC)c2)cc1 yielded a TGI [1] greater than 100 µM, a TGI [2] greater than 100 µM and a TGI [3] greater than 100 µM. It also gave a TGI [4] greater than 100 µM, a GI50 [5] greater than 70.1 µM and a TGI [5] greater than 100 µM. The TGI [6] was greater than 100 µM, the TGI [7] was > 100 µM and 97.8 µM and the TGI [8] was greater than 100 µM. For the same compound, the TGI [9] was greater than 100 µM, the GI50 [10] was > 100 µM and 14.7 µM and the TGI [10] was greater than 100 µM.
Work on O=C(CC12CC3CC(CC(C3)C1)C2)NCCOCCOCCNC(=O)c1cc2c(o1)C(=O)c1ccccc1C2=O yielded a GI50 [1] of 1.34 µM, a TGI [1] of 2.65 µM and a GI50 [2] of 1.78 µM. It also gave a TGI [2] of 3.39 µM, a GI50 [3] of 1.14 µM and a TGI [3] of 2.43 µM. The GI50 [4] was 0.176 µM, the TGI [4] was 0.328 µM and the GI50 [5] was 0.595 µM. The TGI [5] was 1.87 µM, the GI50 [6] was 1.58 µM and the TGI [6] was 3.09 µM. The GI50 [7] was 1.5 µM, the TGI [7] was 3.09 µM and the GI50 [8] was 0.526 µM. It also gave a TGI [8] of 2.03 µM, a GI50 [9] of 0.317 µM and a TGI [9] of 1 µM. It also gave a GI50 [10] of 1.6 µM and a TGI [10] of 3.16 µM.
